Key:
[1] = biological target: T1, Adenosine deaminase (from bovine spleen) (Bos taurus, UniProt P56658); assay: ADA enzyme inhibition by UV-vis spectrophotometry (Kaplan method, absorbance at 265 nm); assay type: biochemical; details: for IC50: pH 7.5, 37°C, phosphate buffer; for Ki: secondary plot of apparent Km versus [I], inhibitor 0–130 μM, substrate 20–124 μM, 37°C, pH 7.5, read-out: Ki (inhibition constant)
T1 construct: Adenosine deaminase (from bovine spleen in 3.2 M ammonium sulfate) was purchased from Sigma; purchased Sigma (St. Louis, MO, USA); host or cells: bovine spleen (tissue-derived)
T1 sequence (P56658 1-363): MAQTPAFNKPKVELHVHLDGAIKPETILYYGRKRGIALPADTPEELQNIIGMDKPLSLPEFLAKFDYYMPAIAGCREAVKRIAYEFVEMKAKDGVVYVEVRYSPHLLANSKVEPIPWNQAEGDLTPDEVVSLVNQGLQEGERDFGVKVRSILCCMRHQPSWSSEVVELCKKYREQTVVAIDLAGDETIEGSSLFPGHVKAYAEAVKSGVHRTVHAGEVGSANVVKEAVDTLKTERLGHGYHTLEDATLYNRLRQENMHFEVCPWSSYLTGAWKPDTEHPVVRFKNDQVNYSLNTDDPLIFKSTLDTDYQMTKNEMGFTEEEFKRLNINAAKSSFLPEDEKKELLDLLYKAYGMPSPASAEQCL
Procedure: Adenosine deaminase (from bovine spleen in 3.2 M ammonium sulfate) was purchased from Sigma (St. Louis, MO, USA). Phosphate buffer 50 mM, pH 7.5, was used as media which is comprised NaH2PO4 and Na2HPO4 and are from Merck. In addition, other material such as solvents, were purchased from this company.
All of biological samples were prepared with double distilled water. The adenosine stock solution prepared and was used in concentration range of 0.01-0.4 mM. The concentration of enzyme in the assay mixture 50 mM sodium phosphate buffer, was 0.9 nM with a final volume of 1ml. Enzymatic activities were assayed by UV–vis spectrophotometry (Shimadzu-3100, Japan) based on Kaplan Method to follow the decrease in absorbance at 265 nm resulting from the conversion of adenosine to inosine.
For accurate determination of kinetic parameters, the IC50 values were evaluated, and then the enzyme inhibition was studied in 180 s intervals. […] In a competitive inhibition; Vmax is unaltered, whereas Km is increased. The slope of a competitive plot is equal to:
Slope=KmI/Vmax.Ki+Km/Vmax
All experiments performed in 37°C and phosphate buffer, pH=7.5.

[2] = biological target: T2, Adenosine deaminase (Bos taurus, UniProt P56658); assay: Fluorescence spectroscopy of ADA 3-D structure changes; parameters: species or system bovine; details: excitation 290 nm, pH 7.5, 37°C; inhibitor 10 μM
T2 construct: Adenosine deaminase (from bovine spleen in 3.2 M ammonium sulfate) was purchased from Sigma; purchased Sigma (St. Louis, MO, USA); host or cells: bovine spleen (tissue-derived)
T2 sequence (P56658 1-363): T1 sequence (P56658 1-363)
Procedure: Fluorescence study has been done with fluorescent spectroscopy (Hitachi MPF-4, Japan), which its cell length is 1cm. In this method, the exciting wavelength was adjusted in 290 nm and the emission was studied in range of 300–400 nm for possible enzyme 3-D structure changes. In this experiment, different concentrations of inhibitors (5–100 μM) were investigated in the presence of ADA (0.01unit) by final volume of 400 μL with phosphate buffer.
To investigate changes in enzyme 3-D structure at different concentration of inhibitors (10–100 μM), the fluorescence experiments were done in excitation wavelength of 290 nm, which is due to tryptophan amino acids in the active site of enzyme Figure 5.
Figure 5 The fluorescence spectra of adenosine deaminase at pH=7.5 and T=37°C in the presence of different concentrations of three inhibitors: 10–100 μM.

[3] = biological target: adenosine deaminase; details: cited from earlier work

Row | Compound | IC50 [1] [µM] | Ki [1] [µM] | inhibition mechanism ([1]; kinetic studies) | enzyme structural changes by fluorescence intensity [2] | Ki [3] [µM]
1 | Cn1c([N+](=O)[O-])cnc1-c1nnco1 [Compound 1] | 103 | 63 |  |  | 
2 | Cn1c([N+](=O)[O-])cnc1C#N [Compound 2] | 41 | 20 | competitive | sever structural changes | 
3 | erythro-9-(2-hydroxy-3-nonyl) adenine [EHNA] |  |  |  |  | 0.037

Source: publication PMC3556010, “A new strategy based on pharmacophore-based virtual screening in adenosine deaminase inhibitors detection and in-vitro study” (DARU Journal of Pharmaceutical Sciences, 2012)
